Measurements as given in ChEMBL document CHEMBL5390204, “Persephacin Is a Broad-Spectrum Antifungal Aureobasidin Metabolite That Overcomes Intrinsic Resistance in Aspergillus fumigatus” (J Nat Prod, 2023).
Values after ≈ are worked out from the molar mass of the structure shown.

How the values were obtained:
Curvularia lunata [1] = assay: Antifungal activity against Curvularia lunata NRRL6409 assessed as reduction in fungal viability incubated for 48 hrs by microplate reader analysis; assay type: functional
Kluyveromyces marxianus = assay: Antifungal activity against Candida kefyr 12 assessed as inhibition in fungal growth incubated for 48 hrs by microplate reader analysis; assay type: functional
[Candida] auris [2] = Antifungal activity against multidrug-resistant Candida auris 381 assessed as inhibition in fungal growth incubated for 48 hrs by microplate reader analysis; assay type: functional; conditions: Candidozyma auris
[Candida] auris [3] = Antifungal activity against multidrug-resistant Candida auris 388 assessed as inhibition in fungal growth incubated for 48 hrs by microplate reader analysis; assay type: functional; conditions: Candidozyma auris
[Candida] auris [4] = Antifungal activity against multidrug-resistant Candida auris 386 assessed as inhibition in fungal growth incubated for 48 hrs by microplate reader analysis; assay type: functional; conditions: Candidozyma auris
[Candida] auris [5] = Antifungal activity against multidrug-resistant Candida auris 387 assessed as inhibition in fungal growth incubated for 48 hrs by microplate reader analysis; assay type: functional; conditions: Candidozyma auris
Cryptococcus neoformans [6] = assay: Antifungal activity against Cryptococcus neoformans H99 assessed as inhibition in fungal growth incubated for 48 hrs in presence of 5% serum by microplate reader analysis; assay type: functional
Saccharomyces cerevisiae = assay: Antifungal activity against multidrug-resistant Saccharomyces cerevisiae 399 assessed as inhibition in fungal growth incubated for 48 hrs by microplate reader analysis; assay type: functional
Cryptococcus neoformans [7] = assay: Antifungal activity against Cryptococcus neoformans H99 assessed as reduction in fungal viability incubated for 48 hrs by microplate reader analysis; assay type: functional
Candida albicans [8] = assay: Antifungal activity against Candida albicans SC5314 assessed as reduction in fungal growth incubated for 48 hrs by microplate reader analysis; assay type: functional
Paecilomyces lilacinus = assay: Antifungal activity against Paecilomyces lilacinus 165E10 assessed as reduction in fungal viability incubated for 48 hrs by microplate reader analysis; assay type: functional, Purpureocillium lilacinum
Candida parapsilosis [9] = assay: Antifungal activity against Candida parapsilosis ATCC 22019 (Y-12969) assessed as reduction in fungal growth incubated for 48 hrs by microplate reader analysis; assay type: functional; conditions: Lodderomyces parapsilosis
Aspergillus terreus = assay: Antifungal activity against Aspergillus terreus 191A6 assessed as reduction in fungal viability incubated for 48 hrs by microplate reader analysis; assay type: functional
Candida albicans [10] = assay: Antifungal activity against Candida albicans SC5314 assessed as reduction in fungal viability incubated for 48 hrs by microplate reader analysis; assay type: functional
Candida albicans [11] = assay: Antifungal activity against Candida albicans ATCC 10231 assessed as reduction in fungal viability incubated for 48 hrs by microplate reader analysis; assay type: functional
Candida albicans [12] = assay: Antifungal activity against Candida albicans 30 assessed as inhibition in fungal growth incubated for 48 hrs by microplate reader analysis; assay type: functional
Rhizopus arrhizus [13] = assay: Antifungal activity against Rhizopus oryzae FGSC 9543 assessed as reduction in fungal viability incubated for 48 hrs by microplate reader analysis; assay type: functional
Candida albicans [14] = assay: Antifungal activity against Candida albicans 21 assessed as inhibition in fungal growth incubated for 48 hrs by microplate reader analysis; assay type: functional
Candida albicans [15] = assay: Antifungal activity against Candida albicans 14 assessed as inhibition in fungal growth incubated for 48 hrs by microplate reader analysis; assay type: functional
[Candida] auris [16] = Antifungal activity against multidrug-resistant Candida auris 382 assessed as inhibition in fungal growth incubated for 48 hrs by microplate reader analysis; assay type: functional; conditions: Candidozyma auris
Aspergillus fumigatus [17] = assay: Antifungal activity against Aspergillus fumigatus NRRL6113 assessed as reduction in fungal viability incubated for 48 hrs by microplate reader analysis; assay type: functional
Rhizopus arrhizus [18] = assay: Antifungal activity against Rhizopus oryzae FGSC 9543 assessed as reduction in fungal growth incubated for 48 hrs by microplate reader analysis; assay type: functional
Cryptococcus neoformans [19] = assay: Antifungal activity against Cryptococcus neoformans H99 assessed as inhibition in fungal growth incubated for 48 hrs in presence of 10% serum by microplate reader analysis; assay type: functional
Mucor circinelloides [20] = assay: Antifungal activity against Mucor circinelloides 235C7 assessed as reduction in fungal viability incubated for 48 hrs by microplate reader analysis; assay type: functional
Candida parapsilosis [21] = assay: Antifungal activity against Candida parapsilosis 23 assessed as inhibition in fungal growth incubated for 48 hrs by microplate reader analysis; assay type: functional; conditions: Lodderomyces parapsilosis
Hamigera insecticola = assay: Antifungal activity against Hamigera insecticola NRRL35442 assessed as reduction in fungal viability incubated for 48 hrs by microplate reader analysis; assay type: functional
Aspergillus fumigatus [22] = assay: Antifungal activity against Aspergillus fumigatus MYA 3627 assessed as reduction in fungal growth incubated for 48 hrs by microplate reader analysis; assay type: functional
Aspergillus fumigatus [23] = assay: Antifungal activity against Aspergillus fumigatus ATCC MYA-3627 assessed as inhibition in fungal growth incubated for 48 hrs in presence of 5% serum by microplate reader analysis; assay type: functional
Aspergillus fumigatus [24] = assay: Antifungal activity against Aspergillus fumigatus MYA 3627 assessed as reduction in fungal viability incubated for 48 hrs by microplate reader analysis; assay type: functional
Curvularia lunata [25] = assay: Antifungal activity against Curvularia lunata NRRL6409 assessed as reduction in fungal growth incubated for 48 hrs by microplate reader analysis; assay type: functional
Candida duobushaemulonii [26] = assay: Antifungal activity against multidrug-resistant Candida duobushaemulonii 392 assessed as inhibition in fungal growth incubated for 48 hrs by microplate reader analysis; assay type: functional; conditions: Candidozyma duobushaemuli
Candida albicans [27] = assay: Antifungal activity against Candida albicans SC5314 assessed as inhibition in fungal growth incubated for 48 hrs in presence of 0% serum by microplate reader analysis; assay type: functional
Aspergillus fumigatus [28] = assay: Antifungal activity against Aspergillus fumigatus NRRL6113 assessed as reduction in fungal growth incubated for 48 hrs by microplate reader analysis; assay type: functional
Aspergillus niger = assay: Antifungal activity against Aspergillus niger FGSC A732 assessed as reduction in fungal viability incubated for 48 hrs by microplate reader analysis; assay type: functional
Candida tropicalis = assay: Antifungal activity against Candida tropicalis ATCC750 (Y-12699) assessed as reduction in fungal growth incubated for 48 hrs by microplate reader analysis; assay type: functional
Aspergillus fumigatus [29] = assay: Antifungal activity against Aspergillus fumigatus NRRL5109 assessed as reduction in fungal growth incubated for 48 hrs by microplate reader analysis; assay type: functional
Aspergillus fumigatus [30] = assay: Antifungal activity against Aspergillus fumigatus NRRL5109 assessed as reduction in fungal viability incubated for 48 hrs by microplate reader analysis; assay type: functional
Candida parapsilosis [31] = assay: Antifungal activity against Candida parapsilosis 28 assessed as inhibition in fungal growth incubated for 48 hrs by microplate reader analysis; assay type: functional; conditions: Lodderomyces parapsilosis
[Candida] auris [32] = Antifungal activity against multidrug-resistant Candida auris 383 assessed as inhibition in fungal growth incubated for 48 hrs by microplate reader analysis; assay type: functional; conditions: Candidozyma auris
Mucor circinelloides [33] = assay: Antifungal activity against Mucor circinelloides 235C7 assessed as reduction in fungal growth incubated for 48 hrs by microplate reader analysis; assay type: functional
Candida albicans [34] = assay: Antifungal activity against Candida albicans SC5314 assessed as inhibition in fungal growth incubated for 48 hrs in presence of 5% serum by microplate reader analysis; assay type: functional
Candida duobushaemulonii [35] = assay: Antifungal activity against multidrug-resistant Candida duobushaemulonii 394 assessed as inhibition in fungal growth incubated for 48 hrs by microplate reader analysis; assay type: functional; conditions: Candidozyma duobushaemuli
Candida albicans [36] = assay: Antifungal activity against Candida albicans 24 assessed as inhibition in fungal growth incubated for 48 hrs by microplate reader analysis; assay type: functional

## CC[C@H](C)C[C@H](C)C[C@H](C)C[C@@H]1NC(=O)[C@H](C(C)C)N(C)C(=O)[C@@H]([C@H](C)CC)OC(=O)[C@H](C(C)(C)O)N(C)C(=O)[C@H](CC(C)C)NC(=O)[C@H](C(C)C)N(C)C(=O)[C@H]([C@H](C)CC)NC(=O)[C@@H]2CCCN2C(=O)CN(C)C1=O
Curvularia lunata [1]
  MFC<=99.9: 0.6 µM (≈ 0.645 µg/mL)
Kluyveromyces marxianus
  MIC80: 1.3 µM (≈ 1.4 µg/mL)
[Candida] auris [2]
  MIC80: 2.5 µM (≈ 2.69 µg/mL)
[Candida] auris [3]
  MIC80: 2.5 µM (≈ 2.69 µg/mL)
[Candida] auris [4]
  MIC80: 2.5 µM (≈ 2.69 µg/mL)
[Candida] auris [5]
  MIC80: 2.5 µM (≈ 2.69 µg/mL)
Cryptococcus neoformans [6]
  MIC80: < 0.2 µM
Saccharomyces cerevisiae
  MIC80: 2.5 µM (≈ 2.69 µg/mL)
Cryptococcus neoformans [7]
  MFC<=99.9: 2.5 µM (≈ 2.69 µg/mL)
Candida albicans [8]
  MFC: 1.3 µM (≈ 1.4 µg/mL)
  MIC80: 0.3 µM (≈ 0.323 µg/mL)
Paecilomyces lilacinus
  MFC<=99.9: >10 µM
Candida parapsilosis [9]
  MFC: 2.5 µM (≈ 2.69 µg/mL)
  MIC80: 2.5 µM (≈ 2.69 µg/mL)
Aspergillus terreus
  MFC<=99.9: >10 µM
Candida albicans [10]
  MFC<=99.9: 1.3 µM (≈ 1.4 µg/mL)
Candida albicans [11]
  MFC<=99.9: 1.3 µM (≈ 1.4 µg/mL)
Candida albicans [12]
  MIC80: 5 µM (≈ 5.38 µg/mL)
Rhizopus arrhizus [13]
  MFC<=99.9: >10 µM
Candida albicans [14]
  MIC80: 1.3 µM (≈ 1.4 µg/mL)
Candida albicans [15]
  MIC80: 0.6 µM (≈ 0.645 µg/mL)
[Candida] auris [16]
  MIC80: 2.5 µM (≈ 2.69 µg/mL)
Aspergillus fumigatus [17]
  MFC<=99.9: 5 µM (≈ 5.38 µg/mL)
Rhizopus arrhizus [18]
  MFC: > 10 µM
  MIC80: > 10 µM
Cryptococcus neoformans [19]
  MIC80: < 0.2 µM
Mucor circinelloides [20]
  MFC<=99.9: >10 µM
Candida parapsilosis [21]
  MIC80: 2.5 µM (≈ 2.69 µg/mL)
Hamigera insecticola
  MFC<=99.9: 5 µM (≈ 5.38 µg/mL)
Aspergillus fumigatus [22]
  MFC: 5 µM (≈ 5.38 µg/mL)
  MIC80: 2.5 µM (≈ 2.69 µg/mL)
Aspergillus fumigatus [23]
  MIC80: 2.5 µM
Aspergillus fumigatus [24]
  MFC<=99.9: 5 µM (≈ 5.38 µg/mL)
Curvularia lunata [25]
  MFC: 0.6 µM (≈ 0.645 µg/mL)
  MIC80: 0.3 µM (≈ 0.323 µg/mL)
Candida duobushaemulonii [26]
  MIC80: 2.5 µM (≈ 2.69 µg/mL)
Candida albicans [27]
  MIC80: 0.6 µM
Aspergillus fumigatus [28]
  MFC: 5 µM (≈ 5.38 µg/mL)
  MIC80: 2.5 µM (≈ 2.69 µg/mL)
Aspergillus niger
  MFC<=99.9: >10 µM
Candida tropicalis
  MFC: 2.5 µM (≈ 2.69 µg/mL)
  MIC80: 1.3 µM (≈ 1.4 µg/mL)
Aspergillus fumigatus [29]
  MFC: 5 µM (≈ 5.38 µg/mL)
  MIC80: 2.5 µM (≈ 2.69 µg/mL)
Aspergillus fumigatus [30]
  MFC<=99.9: 5 µM (≈ 5.38 µg/mL)
Candida parapsilosis [31]
  MIC80: 2.5 µM (≈ 2.69 µg/mL)
[Candida] auris [32]
  MIC80: 2.5 µM (≈ 2.69 µg/mL)
Mucor circinelloides [33]
  MFC: > 10 µM
  MIC80: > 10 µM
Candida albicans [34]
  MIC80: 0.2 µM
Candida duobushaemulonii [35]
  MIC80: 2.5 µM (≈ 2.69 µg/mL)
Candida albicans [36]
  MIC80: 0.6 µM (≈ 0.645 µg/mL)
